{
  "source": "patent US6737241B2",
  "about": "“Methods for screening for transdominant intracellular effector peptides and RNA molecules” (Rigel Pharmaceuticals, Inc., priority 1996, dated 2004)",
  "key": {"NIH 3T3 cells": {"system": "NIH 3T3 cells", "assay": "Staurosporine induction of apoptosis (ethidium bromide/acridine orange double staining)", "assay_type": "cell-based", "conditions": "1 uM in serum-free media, within 24 hours", "procedure": "D. Staurosporine selection. Staurosporine, an alkaloid from Streptomyces sp., is a potent, broad spectrum inhibitor of protein kinases which binds the ATP site. Addition of 1 uM staurosporine in serum-free media to NIH 3T3 cells induced >99% apoptosis within 24 hours, as determined by ethidium bromide/acridine orange double staining as described for the Fas selection."}, "3T3 cells [1]": {"system": "3T3 cells", "assay": "Apotag / TUNEL assay of apoptosis induced by hTNFa and cycloheximide", "assay_type": "cell-based", "conditions": "expressed in 3T3 cells from an MSCV retroviral promoter; hTNFa 50 ng/ml + cycloheximide 6 hours, harvested at 24 hours", "procedure": "Apotag assay: TUNEL (TdT-mediated dUTP-fluorescein nick end labeling) Boehringer Mannheim kit, catalog no. 168795\n3T3 cells transiently infected with either MFGLacZ, BCL2, or […] plasmids were grown to 50% confluence at the time of induction with hTNFa (50 ng/ml media) and cycloheximide ([…] media) for 6 hours. Cells were washed at 6 hours and harvested at 24 hours after induction. Cells were harvested by pooling all media from cells (in order to collect any apoptotic, floating cells) with the washings and trypsinized cells. The cells were spun and washed with PBS containing 1% BSA, transferred to an eppendorf tube and the wash repeated once.\nCells were fixed in 4% paraformaldehyde at room temperature for 30 minutes, washed in PBS/BSA, then resuspended in permeabilisation buffer for 2 minutes on ice. After permeabilisation, cells were washed twice in PBS/BSA and incubated at 37° C. for 1 hour with labeling buffer containing fluoresceinated dUTP, unlabeled nucleotide mixture and terminal deoxynucleotidyl transferase (TdT). Cells were washed twice with PBS/BSA, resuspended in PBS/BSA and transferred to a FACS tube for analysis. Samples were also visualized under the fluorescence microscope."}, "3T3 cells [2]": {"system": "3T3 cells", "assay": "Propidium iodide staining of fixed cells to assay for apoptosis (TNF/CXH)", "assay_type": "cell-based", "conditions": "expressed in 3T3 cells", "procedure": "Propidium Iodide staining of fixed cells to assay for apoptosis: (Sherwood and Schimke, Methods in Cell Biology, 46:77-87, 1995) 3T3 cells transiently infected with MFGLacZ, Bcl2, or CPP32 were plated and treated with TNF/CXH as described above, and harvested and washed as above. Cells were then resuspended in 70% ethanol in PBS at 4° C. and kept at 4° C. overnight. When ready to FACS, cells were stained with propidium iodide as follows. Cells were spun at 14,000 RPM for 10 seconds and washed once with PBS/BSA. Cells were then resuspended in […] staining solution (PBS with 50 mg/ml RNase A (DNase-free) with 10 mg/ml propidium iodide) and incubated at 37° C for at least 1 hour. Cells were then pelleted and resuspended in PBS/BSA solution containing 10 mg/ml propidium iodide and analyzed by FACS scanning."}, "CPP32": {"biological_target": "T1, CPP32 (Mus musculus, UniProt P70677)", "T1 construct": "endogenous in cells; host or cells: 3T3 cells (lysate after TNF/cycloheximide stimulation)", "T1 sequence (P70677 29-175 limits assumed)": "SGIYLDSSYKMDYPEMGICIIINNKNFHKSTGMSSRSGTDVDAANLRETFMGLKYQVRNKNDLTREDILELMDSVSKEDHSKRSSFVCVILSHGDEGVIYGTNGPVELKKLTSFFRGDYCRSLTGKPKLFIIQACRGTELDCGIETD", "T1 sequence (P70677 176-277 limits assumed)": "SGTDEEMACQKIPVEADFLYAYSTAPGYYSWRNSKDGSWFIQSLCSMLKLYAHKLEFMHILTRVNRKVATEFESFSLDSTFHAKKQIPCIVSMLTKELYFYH", "assay": "Enzymatic assay of CPP32 activity (DEVD-pNA cleavage) in extracts of TNF/CXH-stimulated 3T3 cells", "assay_type": "biochemical", "conditions": "cell extracts, 30 min to 4 hours after TNF/CXH; control WIN cells rise at 2 hours", "procedure": "Enzymatic Assay of CPP32 activity: CPP32 Assay Kit: Clontech CPP32 Colorimetric Assay Kit (Cat. No. K2027-2): 3T3 cells were infected with the vectors described in Part I, section C, and selected in G418 media prior to assay. 6-well plates of 3T3 cells at near confluence were stimulated with TNF/CXH as described above and harvested at 30 min, 1, 2 and 4 hours after stimulation as follows. Cells were trypsinized and collected as described above. After transfering to an eppendorf tube, cells were spun and resuspended in […] chilled Cell Lysis Buffer. Cells were incubated for 10 minutes on ice, then […] of 2× Reaction Buffer containing DTT was added to each tube. 5 ml of the calorimetric conjugated substrate (DEVD-paranitroanilide, 50 mM final concentration) was added to each tube and incubated at 37° C. for 30 minutes. Samples were transferred to a 96 well plate and read on a spectrophotometer at O.D. of 405. […] By 4 hours, cells have begun to die and the activity is decreased. […] In the case of BCL2, it should be due to inhibition of apoptosis upstream of the enzyme. With CPP32 inhibitor peptide, it should be due to direct inhibition of enzymatic activity. These in vitro results are consistent with the results seen in cell death assays described above."}, "PKCa": {"system": "PKCa", "assay": "PKCa localization by immunohistochemistry after PMA stimulation", "assay_type": "cell-based, Murine"}, "cells": {"system": "cells", "assay": "Staurosporin induced apoptosis in cells expressing the peptide with a retrovirus", "assay_type": "cell-based", "conditions": "peptide expressed in cells with a retrovirus"}, "Jurkat EcoR cells": {"system": "Jurkat EcoR cells", "assay": "IgM anti-Fas (CH-11) selection of retrovirus-transduced Jurkat cells", "conditions": "peptide expressed in cells with a retrovirus", "protocol": "A sterile Acrodisc 0.45 micron syringe filter (Gelman Sciences) was attached to the end of a 10 ml sterile syringe and the injection stopper sterilely removed from the syringe barrel. At 48 hours post-transfection, the virus supernatant was removed from the Phoenix cells and added to the syringe barrel. The stopper was replaced and the virus supernatant was ejected dropwise into a clean, sterile conical tube. […] Polybrene was added to each viral supernatant (Sigma; 2.5 mg/ml in ddH20=500×; store at −20° C.) to a final concentration of 5 mg/ml. 4.5×10^6 Jurkat EcoR cells (Jurkat cells stably expressing the ecotropic retrovirus receptor) were pelleted for 1400 rpm for five min and resuspended in 9 mls of the OL-2 library virus supernatant. The cells were distributed in aliquots of 1 ml, or 5×10^5 cells, into the wells of a 24 well plate. 1.5×10^6 Jurkat EcoR cells were similarly treated with 3 mls each of the lacZ viral supernatant and the OL-1 viral supernatant. Each cell plate was wrapped in parafilm, placed in a microplate carrier (DuPont) and centrifuged at 2500 rpm for 90 min at 32° C. in a DuPont/Sorvall RT 6000B table top centrifuge. After centrifugation, the cells were observed under a microscope. […] The parafilm was removed from the plates, which were placed at 32° C. […]"}},
  "data": [
    {"compound": "CN[C@@H]1C[C@H]2O[C@@](C)([C@@H]1OC)n1c3ccccc3c3c4c(c5c6ccccc6n2c5c31)C(=O)NC4", "note": "[staurosporine, Staurosporine]", "values": [
      {"measurement": "apoptosis", "setting": "NIH 3T3 cells", "result": "> 99", "unit": "%"}
    ]},
    {"compound": "Bcl2: Bcl2 protein expressed from a retroviral vector; known inhibitor of apoptosis, positive control", "values": [
      {"measurement": "inhibition of apoptosis induced by tumor necrosis factor and cycloheximide (TUNEL)", "setting": "3T3 cells [1]", "result": "able to inhibit apoptosis"},
      {"measurement": "inhibition of apoptosis induced by tumor necrosis factor and cycloheximide (PI staining)", "setting": "3T3 cells [2]", "result": "able to inhibit apoptosis"},
      {"measurement": "CPP32 enzyme activity (cleavage of DEVD-pNA)", "setting": "CPP32", "result": "this rise in activity is not seen"}
    ]},
    {"compound": "GKQKTKTIKGPP", "values": [
      {"measurement": "translocation of PKCa to the nucleus", "setting": "PKCa", "result": "able to specifically inhibit translocation of activated PKCa"}
    ]},
    {"compound": "MGKRKGDEVDGVGPP [OL-1]", "values": [
      {"measurement": "inhibition of Staurosporin induced apoptosis", "setting": "cells", "result": "inhibit"},
      {"measurement": "inhibition of Fas-mediated apoptosis", "setting": "Jurkat EcoR cells", "result": "inhibit"}
    ]}
  ]
}
